# Literature values as cited in US20090232916A1, “FOOD PRODUCTS FOR DIABETICS” (priority 2004, published 2009).
# System: IGT subjects
# Conditions: over a period of three years
compound,measurement,value
CN(C)C(=N)N=C(N)N [metformin],reduction of the risk of progressing from IGT to diabetes,31%
